Calls of active or inactive are those of the source.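 How the source made its calls: active means EC50 at or below 20 micromolar; inactive means the rest.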
target: Neurotensin receptor type 1 (Homo sapiens) (UniProt P30989); assay: NTR1 agonists, beta-arrestin recruitment, SAR follow-up, orthogonal assay for NTR1 agonist project, cell-based, luminescence, CHO-K1 NTSR1 PathHunter (AID 602427);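 further: agonist potency for NTR1 activation where higher luminescence means more arrestin recruitment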
Sequence (P30989 whole entry, looked up): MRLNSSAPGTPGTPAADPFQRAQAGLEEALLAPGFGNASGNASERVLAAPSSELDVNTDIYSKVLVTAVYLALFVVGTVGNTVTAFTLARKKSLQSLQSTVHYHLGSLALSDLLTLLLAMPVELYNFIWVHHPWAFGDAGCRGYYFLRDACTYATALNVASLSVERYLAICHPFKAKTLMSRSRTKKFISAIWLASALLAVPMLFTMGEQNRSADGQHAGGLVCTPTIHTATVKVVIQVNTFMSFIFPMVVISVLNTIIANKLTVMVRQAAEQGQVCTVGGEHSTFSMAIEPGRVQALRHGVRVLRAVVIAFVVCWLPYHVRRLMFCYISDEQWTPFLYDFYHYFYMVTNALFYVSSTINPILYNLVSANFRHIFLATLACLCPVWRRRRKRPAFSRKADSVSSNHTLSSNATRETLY

EC50, inactive:
CCn1cc(C(=O)c2ccc(F)cc2)c(=O)c2cc(OC)c(OC)cc21 > 33 µM
COc1ccc(Cn2cc(C(=O)c3ccc(OC)cc3)c(=O)c3ccccc32)cc1 > 33 µM
COc1ccc(C(=O)c2cn(Cc3ccc(OC(F)(F)F)cc3)c3ccccc3c2=O)cc1 > 33 µM
COc1cc2c3nnc(-c4ccc(F)cc4)c-3cn(Cc3ccc(C)cc3)c2cc1OC > 33 µM
COc1ccc(Cn2cc3c(-c4ccc(F)cc4)nnc-3c3cc(OC)c(OC)cc32)cc1 > 33 µM
COc1cc2c3nnc(-c4ccc(F)cc4)c-3cn(Cc3ccc(N(C)C)cc3)c2cc1OC > 33 µM
COc1ccccc1N1CCN(c2ncnc3c2cnn3-c2ccc(C)cc2C)CC1
COc1cc2nc(-c3ccccc3)nc(N3CCN(c4ccccc4F)CC3)c2cc1OC > 33 µM
Fc1ccc(Cn2cc3c(-c4ccc(Cl)cc4)nnc-3c3cc4c(cc32)OCO4)cc1 > 33 µM
O=S(=O)(c1ccc(-c2csc(N/N=C/c3ccco3)n2)cc1)N1CCCC1 > 33 µM
Cc1ccc(-n2ncc3c(N4CCN(c5cc(C)ccc5C)CC4)ncnc32)c(C)c1 > 33 µM
COc1ccc2c3nnc(-c4ccc(C)cc4)c-3cn(Cc3ccc(F)cc3)c2c1 > 33 µM
Cc1ccc(Cn2cc3c(-c4ccc(Cl)cc4)nnc-3c3cc4c(cc32)OCO4)cc1 > 33 µM
Cc1cc(Cl)ccc1-n1ncc2c(N3CCN(c4ccccc4)CC3)ncnc21 > 33 µM
COc1ccc(-c2nnc3c4ccccc4n(Cc4ccc(OC(F)(F)F)cc4)cc2-3)cc1 > 33 µM
CN(C)S(=O)(=O)c1ccc(-c2csc(N/N=C/c3ccco3)n2)cc1 > 33 µM
COc1cc2c3nnc(-c4ccccc4)c-3cn(Cc3ccccc3)c2cc1OC > 33 µM
COc1cccc2c(C(=O)N[C@@H](CC(C)C)C(=O)O)cn(-c3ccnc4ccccc34)c12 > 33 µM
COc1ccc(C(=O)c2cn(Cc3ccc(Cl)cc3)c3ccccc3c2=O)cc1 > 33 µM
COc1cccc(OC)c1-c1cc(C(=O)N[C@@H](CC(C)C)C(=O)OC(C)(C)C)nn1-c1ccnc2cc(Cl)ccc12 > 33 µM
COc1cccc(OC)c1-c1cc(C(=O)NC2(C(=O)O)C3CC4CC(C3)CC2C4)nn1-c1ccnc2cc(Cl)ccc12 (centres undefined) > 33 µM
CCc1ccc(-c2nnc3c4cc(OC)c(OC)cc4n(Cc4ccc(F)cc4)cc2-3)cc1 > 33 µM
COc1ccc(-c2nnc3c4cc(OC)c(OC)cc4n(Cc4ccc(F)cc4)cc2-3)cc1 > 33 µM
COc1cc2c3nnc(-c4ccc(F)cc4)c-3cn(Cc3ccc(Cl)cc3)c2cc1OC > 33 µM
COc1ccc2c3nnc(-c4ccc(C)cc4)c-3cn(Cc3ccccc3)c2c1 > 33 µM
COc1ccc(Cn2c(SCc3ccc(C)cc3)nc3cc(OC)c(OC)cc3c2=N)cc1Cl > 33 µM
CCCSc1nc2cc(OC)c(OC)cc2c(=N)n1Cc1cccc(C(F)(F)F)c1 > 33 µM
COc1ccc(-c2nnc3c4ccccc4n(CCc4ccccc4)cc2-3)cc1 > 33 µM
COc1ccc(-c2nnc3c4cc(OC)c(OC)cc4n(Cc4ccccc4)cc2-3)cc1 > 33 µM
COc1cc2c3nnc(-c4ccc(Cl)cc4)c-3cn(Cc3ccc(C)cc3)c2cc1OC > 33 µM
COc1cc2c3nnc(-c4ccc(F)cc4)c-3cn(Cc3ccccc3N(C)C)c2cc1OC > 33 µM
CC(C)C[C@H](NC(=O)c1cn(-c2ccnc3ccccc23)c2c(OCc3ccccc3)cccc12)C(=O)O
COc1ccc(Cn2c(SCc3ccccc3)nc3cc(OC)c(OC)cc3c2=N)cc1Cl > 33 µM
CCN(CC)c1ccc(/C=N/Nc2nc(-c3ccc(S(=O)(=O)N(C)C)cc3)cs2)cc1 > 33 µM
Cc1ccc(-c2nnc3c4cc5c(cc4n(Cc4ccc(F)cc4)cc2-3)OCO5)cc1C > 33 µM
COc1ccccc1-c1nc(C(=O)N[C@@H](CC(C)C)C(=O)O)cn1-c1ccnc2ccccc12 > 33 µM
COc1ccc(C(=O)c2cn(Cc3ccc(C)cc3)c3ccccc3c2=O)cc1 > 33 µM
COc1cc2c3nnc(-c4ccc(F)cc4)c-3cn(Cc3ccccn3)c2cc1OC > 33 µM
COc1cc2c(=O)c(C(=O)c3ccc(F)cc3)cn(CC3CC3)c2cc1OC > 33 µM
COc1ccccc1-c1cc(C(=O)O)nn1-c1ccnc2cc(Cl)ccc12 > 33 µM
COc1ccc2c(c1)c(=O)c(C(=O)c1ccc(F)cc1)cn2Cc1ccccc1 > 33 µM
COc1cc2c3nnc(-c4ccc(F)cc4)c-3cn(Cc3cccnc3)c2cc1OC > 33 µM
COc1cc2nc(Cc3ccccc3)nc(N3CCN(c4ccccc4OC)CC3)c2cc1OC > 33 µM
CCOc1cc2nc(-c3ccc(OC)c(OC)c3)nc(N3CCN(c4ccccc4F)CC3)c2cc1OC > 33 µM

Source: PubChem BioAssay AID602427 (Sanford-Burnham Center for Chemical Genomics, 2012)
